In the supplement of paper PMC10307832:

How the values were obtained:
Assay in all cases: relative viability (nuclei count vs DMSO), 5 days (fraction); higher = more cells survive
[1] = compound: CC1=NC=CC(=C1)C2=CC=C(C=C2)CC(=O)NC3=CC=C(C=C3)C4=CN=CC=C4 [Wnt-C59] + Cc1nc(NC(=O)N2CCC[C@H]2C(N)=O)sc1-c1ccnc(C(C)(C)C(F)(F)F)c1 [Alpelisib] (partner 2 µM)
In short: (§1)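 A single step with final 0.05% Triton X-100, 1% formaldehyde and 1 ug/ml Hoechst fixed the cells and stained nuclei 5 days after treatment. Lung cancer cell lines in 1536-well plates had been treated by pin tool the day after seeding with one drug alone or a fixed anchor-drug dose plus five library-drug doses (not always all listed) in √10 steps, and nuclei were counted on 4× images. Relative viability is the ratio of nuclei in treated wells to nuclei in vehicle wells, taken as the median of duplicate plates.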

[2] = compound: CS(=O)(=O)CCNCc1ccc(-c2ccc3ncnc(Nc4ccc(OCc5cccc(F)c5)c(Cl)c4)c3c2)o1 [Lapatinib] + CC(=O)Nc1cccc(-n2c(=O)n(C3CC3)c(=O)c3c(Nc4ccc(I)cc4F)n(C)c(=O)c(C)c32)c1 [Trametinib] (partner 0.02 µM)
In short: as §1

[3] = compound: CS(=O)(=O)CCNCc1ccc(-c2ccc3ncnc(Nc4ccc(OCc5cccc(F)c5)c(Cl)c4)c3c2)o1 [Lapatinib] + CCNC(=O)c1noc(-c2cc(C(C)C)c(O)cc2O)c1-c1ccc(CN2CCOCC2)cc1 [Luminespib] (partner 0.01 µM)
In short: as §1

[4] = compound: CS(=O)(=O)CCNCc1ccc(-c2ccc3ncnc(Nc4ccc(OCc5cccc(F)c5)c(Cl)c4)c3c2)o1 [Lapatinib] + CC(C)C[C@H](NC(=O)[C@H](Cc1ccccc1)NC(=O)c1cnccn1)B(O)O [Bortezomib] (partner 0.002 µM)
In short: as §1

Cell Line	relative viability ([1]; first compound 0.001 µM)	relative viability ([1]; first compound 0.01 µM)	relative viability ([1]; first compound 0.03162 µM)	relative viability ([1]; first compound 0.1 µM)	relative viability ([2]; first compound 0.02 µM)	relative viability ([2]; first compound 0.06325 µM)	relative viability ([2]; first compound 0.2 µM)	relative viability ([2]; first compound 0.6325 µM)	relative viability ([2]; first compound 2 µM)	relative viability ([3]; first compound 0.02 µM)	relative viability ([3]; first compound 0.06325 µM)	relative viability ([3]; first compound 0.2 µM)	relative viability ([3]; first compound 0.6325 µM)	relative viability ([3]; first compound 2 µM)	relative viability ([4]; first compound 0.02 µM)	relative viability ([4]; first compound 0.06325 µM)	relative viability ([4]; first compound 0.2 µM)	relative viability ([4]; first compound 0.6325 µM)	relative viability ([4]; first compound 2 µM)
NCI-H2170	0.813	0.675	0.987	0.841	0.874	0.82	0.792	0.683	0.238	0.664	0.385	0.433	0.462	0.223					
Calu-6	0.898	0.945	1.15	0.938											0.887	0.951	1.03	1.02	0.906
HCC-366	0.453	0.287	0.412	0.297		0.293	0.253	0.371	0.2							1.03	1.06	0.992	0.935
NCI-H2405	0.89		0.646	0.789		0.409		0.52	0.438	0.696	0.469	0.52	0.567	0.467	0.66	0.946	1.06	0.963	0.854
NCI-H1648						0.307	0.256	0.339	0.233										
LCLC-97TM1	0.268	0.256	0.19	0.2		0.131	0.205	0.181	0.137			0.676	0.765	0.875			0.515	0.74	0.819
EPLC-272H	0.96	0.861	0.976	0.921		0.25	0.281	0.246	0.293			0.44	0.205	0.359		0.837	0.904	1.01	0.781
NCI-H1755	0.932	0.891	0.907	0.908	0.77	0.729	0.792	0.793	0.717	0.421	0.423	0.349	0.579	0.378	0.807	0.919	0.997	0.984	0.874
NCI-H1437	1.07	0.917	1.09	0.946	0.475	0.492	0.498	0.458	0.303	0.961	1.21	1.16	1.13	1.02	0.523	0.46	0.421	0.394	0.39
PC-3 [JPC-3]	1.02	1.05	1.04	1.07		0.675		0.721	0.412	0.74	0.665	0.648	0.722	0.477		0.796	0.818	0.864	0.837
NCI-H727	0.584	0.546	0.741	0.421	0.365		0.436	0.382	0.363			0.285	0.278	0.431	0.758	0.78	1.04	1.09	0.801
